Test results from patent publication US20240043699A1, “DISPERSION AND COATINGS DERIVED THEREFROM” (UNIVERSITY OF MASSACHUSETTS, priority 2022, published 2024).

Test: Krafft Temperature from electrical conductivity in water at various temperatures
Assay type: physicochemical
Settings: electrical conductivity vs. temperature, sulfate
Description: In some embodiments, the surfactants useful for the present disclosure can have a high Krafft temperature. For example, exemplary surfactants can have a Krafft temperature of at least 50° C. […] Krafft temperature can be determined by, for example, measuring electrical conductivity in water at various temperatures, where the Krafft temperature is taken to be the inflection point when conductivity is plotted against temperature.
Krafft Temperature, the temperature at which an ionic surfactant begins to form micelles in water, is marked by a significant increase in solubility and therefore electrical conductivity for ionic surfactants. Electrical conductivities of the HMW Surfactant species were measured in water at various temperatures to determine Krafft Temperature.

Krafft Temperature (listed as SDS): 15 °C
Krafft Temperature: roughly 15 °C
Structure (SMILES): CCCCCCCCCCCCOS(=O)(=O)[O-].[Na+] [sodium dodecyl sulfate]
